Patent US20240407413A1, “Concentrates Compromising Stevia Blends and Uses” (The Coca-Cola Company, priority 2018, published 2024)

How the values were obtained:
[1] = Appearance of 0.3 wt % syrup concentrates diluted from super concentrates; format: physicochemical; settings: 0.3 wt % (5.5+1 syrup concentration) in water, mixed at room temperature for 90 hours
Method: The final syrup concentrations are provided below:
The 2 wt % super concentrates were then diluted to a 5.5+1 syrup concentration (0.3 wt %) with water and mixed at room temperature for 90 hours.

[2] = Solubility in mock syrup system (0.3%); format: physicochemical

Row | Structure (SMILES) | Observations [1] | Solubility in Syrup System (0.3%) ([2]; 500 ppm in citric buffer) | Solubility in Syrup System (0.3%) ([2]; 512 ppm in citric buffer)
1 | C=C1C[C@@]23CC[C@H]4[C@@](C)(CCC[C@@]4(C)C(=O)O[C@@H]4O[C@H](CO)[C@@H](O)[C@H](O[C@@H]5O[C@H](CO)[C@@H](O)[C@H](O)[C@H]5O)[C@H]4O[C@@H]4O[C@@H](C)[C@H](O)[C@@H](O)[C@H]4O)[C@@H]2CC[C@]1(O[C@@H]1O[C@H](CO)[C@@H](O)[C@H](O[C@@H]2O[C@H](CO)[C@@H](O)[C@H](O)[C@H]2O)[C@H]1O[C@@H]1O[C@H](CO)[C@@H](O)[C@H](O)[C@H]1O)C3 [Reb N] | cloudy |  | 
2 | C=C1C[C@@]23CCC4[C@](C)(C(=O)OC5OC(CO)C(O)C(OC6OC(CO)C(O)C(O)C6O)C5OC5OC(CO)C(O)C(O)C5O)CCC[C@@]4(C)[C@@H]2CCC1(OC1OC(CO)C(O)C(OC2OC(CO)C(O)C(O)C2O)C1OC1OC(CO)C(O)C(O)C1O)C3 (stereo partly drawn) [Reb-M, 13-[(2-O-β-D-glucopyranosyl-3-O-β-D-glucopyranosyl-β-D-glucopyranosyl)oxy] ent kaur-16-en-19-oic acid-[(2-O-β-D-glucopyranosyl-3-O-β-D-glucopyranosyl-β-D-glucopyranosyl) ester]] |  | No | No
